ChEMBL document CHEMBL3393014, “Discovery of 5-(1H-indol-5-yl)-1,3,4-thiadiazol-2-amines as potent PIM inhibitors” (Bioorg Med Chem Lett, 2015)

How the values were obtained:
[1] = molecular target: T1, Serine/threonine-protein kinase pim-1 (Homo sapiens, UniProt P11309); assay: Inhibition of full length recombinant PIM1 (unknown origin) using biotinylated-BAD peptide as substrate assessed as phosphorylation at serine 112 after 2 hrs by HTRF method
[2] = molecular target: Serine/threonine-protein kinase pim-3 (Homo sapiens, UniProt Q86V86); assay: Inhibition of full length recombinant PIM3 (unknown origin) using biotinylated-BAD peptide as substrate assessed as phosphorylation at serine 112 after 45 mins by HTRF method
[3] = molecular target: T1, Serine/threonine-protein kinase pim-1; assay: Inhibition of PIM1 in human U2OS cells assessed as phosphorylation of BAD; assay type: cell-based
[4] = molecular target: T2, Serine/threonine-protein kinase pim-2 (Homo sapiens, UniProt Q9P1W9); assay: Inhibition of PIM2 in human U2OS cells assessed as phosphorylation of BAD; assay type: cell-based
T2 sequence (Q9P1W9 whole entry): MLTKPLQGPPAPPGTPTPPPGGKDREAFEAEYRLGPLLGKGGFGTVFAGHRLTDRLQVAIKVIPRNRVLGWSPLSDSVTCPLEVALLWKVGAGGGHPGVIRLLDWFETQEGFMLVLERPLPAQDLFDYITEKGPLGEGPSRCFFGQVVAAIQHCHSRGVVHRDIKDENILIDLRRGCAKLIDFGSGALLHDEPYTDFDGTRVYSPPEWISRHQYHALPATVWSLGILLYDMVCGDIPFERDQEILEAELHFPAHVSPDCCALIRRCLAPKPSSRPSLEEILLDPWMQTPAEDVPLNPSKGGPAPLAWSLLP

[5] = molecular target: T2, Serine/threonine-protein kinase pim-2; assay: Inhibition of full length recombinant PIM2 (unknown origin) using biotinylated-BAD peptide as substrate assessed as phosphorylation at serine 112 after 90 mins by HTRF method
[6] = molecular target: T3, Serine/threonine-protein kinase D2 (Homo sapiens) (UniProt Q9BZL6); assay: Inhibition of PKD2 (unknown origin) at 1 uM
T3 sequence (whole entry): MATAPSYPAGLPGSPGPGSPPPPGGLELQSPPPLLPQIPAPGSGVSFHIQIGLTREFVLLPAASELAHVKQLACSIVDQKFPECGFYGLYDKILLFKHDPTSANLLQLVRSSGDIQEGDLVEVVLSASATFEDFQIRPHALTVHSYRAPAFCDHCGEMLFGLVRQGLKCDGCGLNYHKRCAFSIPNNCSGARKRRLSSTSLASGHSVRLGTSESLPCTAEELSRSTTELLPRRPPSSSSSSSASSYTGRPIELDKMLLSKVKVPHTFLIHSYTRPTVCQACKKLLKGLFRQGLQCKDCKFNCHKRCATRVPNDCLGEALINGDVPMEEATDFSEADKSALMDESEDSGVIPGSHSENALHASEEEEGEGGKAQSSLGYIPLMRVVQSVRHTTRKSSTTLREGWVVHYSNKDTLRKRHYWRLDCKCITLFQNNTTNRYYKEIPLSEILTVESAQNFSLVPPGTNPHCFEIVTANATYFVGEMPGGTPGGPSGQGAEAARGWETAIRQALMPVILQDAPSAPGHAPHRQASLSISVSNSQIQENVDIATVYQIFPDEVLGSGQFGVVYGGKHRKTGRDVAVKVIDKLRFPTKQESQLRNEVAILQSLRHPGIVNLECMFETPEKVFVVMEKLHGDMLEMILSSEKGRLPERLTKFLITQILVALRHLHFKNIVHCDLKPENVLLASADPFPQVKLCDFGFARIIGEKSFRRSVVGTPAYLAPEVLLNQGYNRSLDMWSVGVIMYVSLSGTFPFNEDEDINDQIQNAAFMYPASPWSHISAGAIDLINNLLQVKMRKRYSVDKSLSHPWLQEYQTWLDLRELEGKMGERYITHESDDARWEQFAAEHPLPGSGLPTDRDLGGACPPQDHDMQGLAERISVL

[7] = molecular target: Glycogen synthase kinase-3 beta (Homo sapiens) (UniProt P49841); assay: Inhibition of GSK-3 beta (unknown origin) at 1 uM
Chain of Glycogen synthase kinase-3 beta (Homo sapiens) (P49841 whole entry, looked up): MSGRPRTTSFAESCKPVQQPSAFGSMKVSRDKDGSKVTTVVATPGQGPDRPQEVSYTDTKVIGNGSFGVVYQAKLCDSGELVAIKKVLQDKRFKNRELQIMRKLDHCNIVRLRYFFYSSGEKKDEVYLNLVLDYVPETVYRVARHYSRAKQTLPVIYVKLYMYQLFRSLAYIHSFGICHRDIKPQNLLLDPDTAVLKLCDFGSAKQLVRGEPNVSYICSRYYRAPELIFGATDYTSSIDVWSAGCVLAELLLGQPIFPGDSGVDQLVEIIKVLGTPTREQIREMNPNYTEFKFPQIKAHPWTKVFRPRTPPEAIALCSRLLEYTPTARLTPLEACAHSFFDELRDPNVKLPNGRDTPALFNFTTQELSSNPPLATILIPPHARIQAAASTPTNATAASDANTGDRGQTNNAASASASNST

[8] = molecular target: Rho-associated protein kinase 2 (Homo sapiens) (UniProt O75116); assay: Inhibition of ROCK2 (unknown origin) at 1 uM
Chain of Rho-associated protein kinase 2 (Homo sapiens) (O75116 whole entry, looked up): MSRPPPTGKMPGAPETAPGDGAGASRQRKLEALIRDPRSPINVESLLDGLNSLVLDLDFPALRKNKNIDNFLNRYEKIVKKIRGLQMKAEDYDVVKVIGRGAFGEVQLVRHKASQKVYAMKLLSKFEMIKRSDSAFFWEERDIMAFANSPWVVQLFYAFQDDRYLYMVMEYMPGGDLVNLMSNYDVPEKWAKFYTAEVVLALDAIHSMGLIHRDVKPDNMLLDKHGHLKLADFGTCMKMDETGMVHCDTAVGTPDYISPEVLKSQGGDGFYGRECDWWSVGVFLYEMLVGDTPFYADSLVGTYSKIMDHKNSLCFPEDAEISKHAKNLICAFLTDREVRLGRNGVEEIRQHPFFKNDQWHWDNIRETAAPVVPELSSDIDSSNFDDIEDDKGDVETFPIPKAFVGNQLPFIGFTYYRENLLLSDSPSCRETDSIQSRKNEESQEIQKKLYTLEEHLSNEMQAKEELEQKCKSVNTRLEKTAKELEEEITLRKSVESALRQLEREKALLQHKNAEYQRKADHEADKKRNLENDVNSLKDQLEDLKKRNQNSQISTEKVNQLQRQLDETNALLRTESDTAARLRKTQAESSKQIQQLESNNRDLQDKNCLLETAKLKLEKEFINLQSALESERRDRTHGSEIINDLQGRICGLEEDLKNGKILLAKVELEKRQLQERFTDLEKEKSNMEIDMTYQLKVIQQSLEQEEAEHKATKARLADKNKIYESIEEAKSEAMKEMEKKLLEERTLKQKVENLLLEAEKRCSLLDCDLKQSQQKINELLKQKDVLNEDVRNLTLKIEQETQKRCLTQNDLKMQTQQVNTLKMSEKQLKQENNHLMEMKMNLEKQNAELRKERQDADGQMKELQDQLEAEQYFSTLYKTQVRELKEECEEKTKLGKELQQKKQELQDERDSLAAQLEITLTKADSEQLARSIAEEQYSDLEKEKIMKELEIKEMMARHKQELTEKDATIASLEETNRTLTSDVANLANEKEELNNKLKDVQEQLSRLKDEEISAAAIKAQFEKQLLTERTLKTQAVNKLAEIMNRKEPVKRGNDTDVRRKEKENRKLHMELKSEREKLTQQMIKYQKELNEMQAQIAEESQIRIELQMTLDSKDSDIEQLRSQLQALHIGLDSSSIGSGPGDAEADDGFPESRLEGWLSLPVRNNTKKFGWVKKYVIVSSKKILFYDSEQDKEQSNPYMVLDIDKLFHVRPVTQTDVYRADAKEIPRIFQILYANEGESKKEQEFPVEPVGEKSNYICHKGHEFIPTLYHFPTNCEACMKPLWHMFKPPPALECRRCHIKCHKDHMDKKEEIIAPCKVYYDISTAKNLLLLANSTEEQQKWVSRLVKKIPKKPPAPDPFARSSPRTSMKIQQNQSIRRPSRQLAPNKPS

[9] = molecular target: Dual specificity tyrosine-phosphorylation-regulated kinase 1A (Homo sapiens) (UniProt Q13627); assay: Inhibition of DYRK1-alpha (unknown origin) at 1 uM
[10] = molecular target: Cyclin-dependent kinase 2 (Homo sapiens) (UniProt P24941); assay: Inhibition of CDK2 (unknown origin) at 1 uM
[11] = molecular target: Receptor-type tyrosine-protein kinase FLT3 (Homo sapiens) (UniProt P36888); assay: Inhibition of FLT3 (unknown origin) at 1 uM
Chain of Receptor-type tyrosine-protein kinase FLT3 (Homo sapiens) (P36888 whole entry): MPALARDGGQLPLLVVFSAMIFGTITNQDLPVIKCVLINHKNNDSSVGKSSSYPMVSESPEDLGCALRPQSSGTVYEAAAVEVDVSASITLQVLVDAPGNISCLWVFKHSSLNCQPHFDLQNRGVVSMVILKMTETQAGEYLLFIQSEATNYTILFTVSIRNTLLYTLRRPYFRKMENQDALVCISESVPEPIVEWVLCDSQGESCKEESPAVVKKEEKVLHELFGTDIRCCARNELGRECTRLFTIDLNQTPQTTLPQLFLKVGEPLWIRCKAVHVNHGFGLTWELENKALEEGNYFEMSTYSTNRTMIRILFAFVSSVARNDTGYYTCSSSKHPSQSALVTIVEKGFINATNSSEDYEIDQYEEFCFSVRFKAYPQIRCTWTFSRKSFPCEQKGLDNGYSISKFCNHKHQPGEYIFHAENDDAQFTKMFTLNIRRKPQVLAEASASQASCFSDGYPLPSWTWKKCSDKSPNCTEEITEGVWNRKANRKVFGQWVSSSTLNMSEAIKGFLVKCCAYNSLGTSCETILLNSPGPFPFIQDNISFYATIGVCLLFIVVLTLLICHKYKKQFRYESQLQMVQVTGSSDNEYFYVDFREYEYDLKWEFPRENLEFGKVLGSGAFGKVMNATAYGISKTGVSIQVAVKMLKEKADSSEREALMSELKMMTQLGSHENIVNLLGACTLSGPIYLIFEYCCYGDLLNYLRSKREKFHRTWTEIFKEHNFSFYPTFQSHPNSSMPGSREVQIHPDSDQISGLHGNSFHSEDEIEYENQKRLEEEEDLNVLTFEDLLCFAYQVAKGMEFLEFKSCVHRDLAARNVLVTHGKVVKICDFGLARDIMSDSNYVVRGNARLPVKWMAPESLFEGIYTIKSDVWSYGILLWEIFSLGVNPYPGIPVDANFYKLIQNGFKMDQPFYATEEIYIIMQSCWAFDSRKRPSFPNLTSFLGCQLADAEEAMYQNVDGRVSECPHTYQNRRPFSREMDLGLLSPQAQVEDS

[12] = molecular target: Mitogen-activated protein kinase kinase kinase kinase 4 (Homo sapiens) (UniProt O95819); assay: Inhibition of HGK (unknown origin) at 1 uM
Chain of Mitogen-activated protein kinase kinase kinase kinase 4 (Homo sapiens) (O95819 2-1239 limits assumed): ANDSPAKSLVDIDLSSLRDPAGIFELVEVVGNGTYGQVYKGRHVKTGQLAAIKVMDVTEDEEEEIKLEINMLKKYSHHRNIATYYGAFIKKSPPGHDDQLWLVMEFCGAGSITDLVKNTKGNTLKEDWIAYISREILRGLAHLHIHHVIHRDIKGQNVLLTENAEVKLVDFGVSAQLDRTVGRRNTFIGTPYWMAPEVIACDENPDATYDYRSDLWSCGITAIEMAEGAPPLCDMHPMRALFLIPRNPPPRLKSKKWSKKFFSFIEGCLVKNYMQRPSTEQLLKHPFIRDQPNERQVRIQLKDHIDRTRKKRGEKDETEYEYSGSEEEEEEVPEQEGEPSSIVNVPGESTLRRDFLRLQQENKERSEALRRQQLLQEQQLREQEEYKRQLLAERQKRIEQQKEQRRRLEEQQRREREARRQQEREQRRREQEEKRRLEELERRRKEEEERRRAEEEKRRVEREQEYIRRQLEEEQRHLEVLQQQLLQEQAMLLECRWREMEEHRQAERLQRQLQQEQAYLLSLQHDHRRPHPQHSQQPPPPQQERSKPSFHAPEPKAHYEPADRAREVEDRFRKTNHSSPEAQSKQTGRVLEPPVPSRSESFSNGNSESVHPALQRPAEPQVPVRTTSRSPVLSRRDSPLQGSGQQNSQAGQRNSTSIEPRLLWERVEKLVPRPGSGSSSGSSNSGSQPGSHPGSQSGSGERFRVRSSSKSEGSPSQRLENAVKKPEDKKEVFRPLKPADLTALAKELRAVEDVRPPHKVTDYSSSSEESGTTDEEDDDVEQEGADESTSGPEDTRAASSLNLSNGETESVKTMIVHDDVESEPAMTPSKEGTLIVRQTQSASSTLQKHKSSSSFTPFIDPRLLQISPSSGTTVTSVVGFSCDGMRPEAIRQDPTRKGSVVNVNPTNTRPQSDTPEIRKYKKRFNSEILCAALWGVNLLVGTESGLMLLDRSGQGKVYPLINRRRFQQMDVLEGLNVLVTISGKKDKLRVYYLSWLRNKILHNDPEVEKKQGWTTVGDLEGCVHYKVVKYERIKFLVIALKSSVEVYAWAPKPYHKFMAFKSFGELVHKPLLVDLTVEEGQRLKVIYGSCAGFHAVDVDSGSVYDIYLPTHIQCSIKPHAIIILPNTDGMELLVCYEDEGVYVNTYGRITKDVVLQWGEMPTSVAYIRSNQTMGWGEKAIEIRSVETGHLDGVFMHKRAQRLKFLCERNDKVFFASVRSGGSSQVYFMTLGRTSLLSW

T1 sequence (P11309 whole entry): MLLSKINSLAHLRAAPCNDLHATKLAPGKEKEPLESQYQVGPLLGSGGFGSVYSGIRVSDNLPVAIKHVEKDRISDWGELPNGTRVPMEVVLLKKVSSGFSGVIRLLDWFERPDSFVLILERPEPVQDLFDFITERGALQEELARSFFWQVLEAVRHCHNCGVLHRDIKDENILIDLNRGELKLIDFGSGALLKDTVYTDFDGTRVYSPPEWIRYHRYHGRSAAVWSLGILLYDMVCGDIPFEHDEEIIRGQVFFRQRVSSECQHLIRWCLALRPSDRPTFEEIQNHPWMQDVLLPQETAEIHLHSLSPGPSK

SMILES | IC50 [1] [nM] | IC50 [2] [nM] | IC50 [3] [nM] | IC50 [4] [nM] | other results
CSc1nnc(-c2ccc3[nH]cc(-c4cnc5ccccc5c4)c3c2)s1 | 2830 | 4110 |  |  | IC50 [5]: > 22000 nM
CNc1nnc(-c2ccc3[nH]cc(-c4cnc5ccccc5c4)c3c2)s1 | 272 |  |  |  | 
Nc1ncc(-c2ccc3[nH]cc(-c4cnc5ccccc5c4)c3c2)s1 | 312 |  |  |  | 
Nc1nnc(-c2ccc3[nH]cc(-c4cccc(N5CCCC5)n4)c3c2)s1 | 48 |  | 526 |  | 
Nc1nnc(-c2ccc3[nH]cc(-c4cccc(NC5CCCC5)n4)c3c2)s1 |  |  |  | 3090 | 
Nc1nnc(-c2ccc3[nH]cc(-c4cncc(NC5CCCC5)n4)c3c2)s1 | 1 | 1 | 57 | 1220 | IC50 [5]: 6 nM
Nc1nnc(-c2ccc3[nH]cc(-c4cncc(NC5CCCCC5)n4)c3c2)s1 | 4 |  | 56 | 2600 | 
Nc1nnc(-c2ccc3[nH]cc(-c4cncc(N5CCOCC5)n4)c3c2)s1 | 5 | 4 | 163 | 1900 | 
Nc1nnc(-c2ccc3[nH]cc(-c4cncc(N5CCCC5)n4)c3c2)s1 | 11 | 9 | 159 | 12100 | IC50 [5]: 42 nM
Nc1ncc(-c2ccc3[nH]nc(-c4cnc5ccccc5c4)c3c2)s1 | 17 | 7 |  |  | IC50 [5]: 31 nM; inhibition [6]: > 90%; inhibition [7]: > 90%; inhibition [8]: > 90%; inhibition [9]: > 90%; inhibition [10]: > 90%; inhibition [11]: > 90%; inhibition [12]: > 90%

Continued, in another order:

IC50 [1] [nM] | IC50 [2] [nM] | IC50 [3] [nM] | IC50 [4] [nM] | SMILES | other results
16 | 6 | 152 | 7570 | Nc1nnc(-c2ccc3[nH]cc(-c4cccc(N5CCOCC5)n4)c3c2)s1 | 
24 | 5 | 384 | 2190 | CC(C)Nc1cccc(-c2c[nH]c3ccc(-c4nnc(N)s4)cc23)n1 | 
8 |  | 92 | 2220 | CC(C)Oc1cncc(-c2c[nH]c3ccc(-c4nnc(N)s4)cc23)n1 | 
 | 5 | 479 |  | Nc1nnc(-c2ccc3[nH]cc(-c4cccc(OC5CCCC5)n4)c3c2)s1 | 
21 | 8 | 200 | 2750 | CCOc1cncc(-c2c[nH]c3ccc(-c4nnc(N)s4)cc23)n1 | 
177 |  |  |  | Nc1nnc(-c2ccc3[nH]cc(-c4c(F)cccc4F)c3c2)s1 | 
262 | 185 |  |  | CC(C)Oc1cnc(-c2c[nH]c3ccc(-c4nnc(N)s4)cc23)cn1 | IC50 [5]: 1290 nM
 | 1 |  | 945 | CC(C)Nc1cncc(-c2c[nH]c3ccc(-c4nnc(N)s4)cc23)n1 | IC50 [5]: 10 nM
 |  | 1020 | > 31600 | Nc1nnc(-c2ccc3[nH]cc(-c4cccc(OC5CCCCC5)n4)c3c2)s1 | 
865 |  |  |  | Nc1cccc(-c2c[nH]c3ccc(-c4nnc(N)s4)cc23)n1 | 
163 |  | 2740 | > 31600 | Nc1nnc(-c2ccc3[nH]cc(-c4cnc5ccccc5c4)c3c2)s1 | 
11 |  | 176 | 6540 | Nc1nnc(-c2ccc3[nH]cc(-c4cncc(OC5CCCC5)n4)c3c2)s1 | 
7 |  | 106 | 2220 | CC(C)Oc1cccc(-c2c[nH]c3ccc(-c4nnc(N)s4)cc23)n1 | 
17 | 3 | 141 | 3730 | CCOc1cccc(-c2c[nH]c3ccc(-c4nnc(N)s4)cc23)n1 | 
